Measured values as given in patent US20080221158A1, “Novel 14 and 15 Membered Ring Compounds” (PLIVA - Istrazivacki Institut d.o.o, priority 2003, published 2008).

How the values were obtained:
Assay in all cases: MIC against various organisms (broth dilution)
Type in all cases: cell-based
E. faecalis ATCC 29212 = settings: Enterococcus faecalis, ATCC29212
Experimental: (§1) Using a standard broth dilution method in microtitre, compounds were tested for antibacterial activity. The compounds in the above examples gave minimum inhibitory concentrations (MICS) less than 1 microgram per millilitre against erythromycin-sensitive and erythromycin-resistant strains of Streptococcus pneumoniae and Streptococcus pyogenes.
(§2) In addition, the MIC (1 μg/mL) of test compounds against various organisms was determined including:
(§3) S. aureus Smith ATCC 13709, S. pnetnioniae SP030, S. pyogenes 3565, E. faecalis ATCC 29212, H. influenza ATCC 49247, M. catarrhalis ATCC 23246.

[1] = tested on: M. catarrhalis ATCC 23246; settings: Moraxella catarrhalis, ATCC23246
Experimental: as §1, §2, §3

[2] = tested on: S. aureus Smith ATCC 13709; settings: Staphylococcus aureus, ATCC13709
Experimental: as §1, §2, §3

S. pneumoniae SP030 = settings: Streptococcus pneumoniae
Experimental: as §1, §2, §3

S. pyogenes 3565 = settings: Streptococcus pyogenes
Experimental: as §1, §2, §3

H. influenzae ATCC 49247 = settings: Haemophilus influenzae, ATCC49247
Experimental: as §1, §2, §3

Row | SMILES | MIC (E. faecalis ATCC 29212) [µg/mL] | MIC [1] [µg/mL] | MIC [2] [µg/mL] | MIC (S. pneumoniae SP030) [µg/mL] | MIC (S. pyogenes 3565) [µg/mL] | MIC (H. influenzae ATCC 49247) [µg/mL]
1 | CC[C@H]1OC(=O)[C@H](C)[C@@H](O[C@H]2C[C@@](O)(OC)[C@@H](NC(=O)CCOCCNc3cc4c(=O)c(C(=O)O)cn(C5CC5)c4cc3Cl)[C@H](C)O2)[C@H](C)[C@@H](O[C@@H]2O[C@H](C)C[C@H](N(C)C)[C@H]2O)[C@](C)(O)C[C@@H](C)CN(C)[C@H](C)[C@@H](O)[C@]1(C)O [Example 2] | < 1 | < 2 | < 1 | < 1 | < 1 | < 2
2 | CC[C@H]1OC(=O)[C@H](C)[C@@H](O[C@H]2C[C@@](O)(OC)[C@@H](NC(=O)CCOCCNc3cc4c(=O)c(C(=O)O)cn(C5CC5)c4cc3Cl)[C@H](C)O2)[C@H](C)[C@@H](OC2O[C@H](C)C[C@H](N(C)C)[C@H]2O)[C@](C)(O)C[C@@H](C)CN(C)[C@H](C)[C@@H](O)[C@]1(C)O (stereo partly drawn) [Example 1] | < 1 | < 2 | < 1 | < 1 | < 1 | < 2
3 | CC[C@@H]1OC(=O)[C@H](C)[C@H](O[C@@H]2C[C@@](O)(OC)[C@@H](NC(=O)CCOCCOc3cc4c(=O)c(C(=O)O)cn(C5CC5)c4cc3Cl)[C@H](C)O2)[C@@H](C)[C@H](O[C@@H]2O[C@H](C)C[C@H](N(C)C)[C@@H]2O)[C@](C)(O)C[C@H](C)CN(C)[C@H](C)[C@@H](O)[C@]1(C)O [Example 3, 4″-(S)-(3-[2-(3-Carboxy-7-chloro-1-cyclopropyl-4-oxo-1,4-dihydro-quinolin-6-yloxy)ethoxy]-propionylamino]-4″-deoxyazithromycin] | < 1 | < 2 | < 1 | < 1 | < 1 | < 2
